Assay results: article PMC10877568 (ACS Chemical Biology, 2024)

How the values were obtained:
Format in all cases: binding
[1] = target: T1, Siglec-9 V-set domain (Siglec-9d1) (Homo sapiens, UniProt Q9Y336, C36S); assay: Isothermal titration calorimetry
[2] = target: T1, Siglec-9 V-set domain (Siglec-9d1); assay: 1H-15N HSQC NMR titration
mVENUS = assay: STD-NMR control experiment with mVENUS

T1 sequence (Q9Y336 18-144 C36S): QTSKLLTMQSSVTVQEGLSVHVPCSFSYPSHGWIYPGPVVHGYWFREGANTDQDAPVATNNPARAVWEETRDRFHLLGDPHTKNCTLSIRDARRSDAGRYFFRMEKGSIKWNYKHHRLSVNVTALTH

Compound | ΔH ([1]; ITC, Siglec-9d1) | fold higher affinity for Siglec-9 than the glycan with unsubstituted Neu5Ac ([1]; comparison with the unsubstituted glycan) | fold higher affinity toward Siglec-9 than BTCNeu5Ac ([1]; from ITC KD values) | Kd [2] | STD NMR signals on binding to mVENUS (mVENUS)
9N-[5-(2-methylthiazol-4-yl)thiophene sulfonamide]-Neu5Acα(2–6)Galβ(1–4)GlcNAc [^MTTSNeu5Ac] | -10.2 kcal/mol | > 20 fold | approximately 2 fold | – | –
CC(=O)N[C@H]1[C@H]([C@H](O)[C@H](O)CO)O[C@@](O[C@H]2[C@@H](O)[C@@H](CO)O[C@@H](O[C@@H]([C@H](O[C@@H]3O[C@@H](C)[C@@H](O)[C@@H](O)[C@@H]3O)[C@H](C=O)NC(C)=O)[C@H](O)CO)[C@@H]2O)(C(=O)O)C[C@@H]1O [sLeX, Neu5Ac(α2-3)Gal(β1-4)[Fuc(1-3)]GlcNAc] | – | – | – | 499 ± 74 µM | did not produce any STD NMR signals
